US11773092B1, “Pyrido[3,4-b]indol-1-one compounds as antibacterial agents” (KING FAISAL UNIVERSITY, priority 2023, dated 2023)
Values after ≈ are worked out from the molar mass of the structure shown. Read-outs that look alike come from different tables or passages of the source.

What was measured:
[1] = molecular target: T1, DNA gyrase from E. coli (Escherichia coli, UniProt P0AES4+P0AES6); assay: Inhibitory activity on E. coli DNA gyrase (Inspiralis assay); format: biochemical
T1 construct: purchased Inspiralis
Experimental: Inhibitory potencies were investigated utilizing the Inspiralis assay on streptavidin-coated 96-well microtiter plates. First, the plates were rehydrated with buffer (20 mM Tris-HCl with pH 7.6, 0.01% w/v BSA, 0.05% v/v Tween 20, 137 mM NaCl) and the biotinylated oligonucleotide was then immobilized. After washing off the unbound oligonucleotide, the enzyme test was performed. […] Reaction solutions were incubated at 37° C. for 30 min. After that, the TF buffer (50 mM NaOAc with pH 5.0, 50 mM NaCl and 50 mM MgCl2) was added to terminate the enzymatic reaction. After additional incubation for 30 min at rt, during which biotinoligonucleotide-plasmid triplex was formed, the unbound plasmid was washed off using TF buffer and SybrGOLD in T10 buffer (10 mM Tris HCl with pH 8.0 and 1 mM EDTA) was added. […] Initial screening was done at 100 or 10 μM concentration of inhibitors. […] GraphPad Prism software was used to calculate the IC50 values. The result is given as the average value of three independent measurements.

[2] = tested on: Mycobacterium tuberculosis H37Rv strain; assay: Anti-tubercular alamar blue microplate MIC; format: cell-based; details: 168 h, M. tuberculosis H37Rv, seven days incubation, read-out: anti-mycobacterial activity (MIC)
[3] = tested on: Staphylococcus aureus ATCC 29213; assay: In vitro antibacterial activity (CLSI M07-A10 dilution MIC); format: cell-based; details: ATCC29213
Description: (§1) Staphylococcus epidermidis, Bacillus subtilis, Enterococcus faecium, Enterococcus faecium resistant to VRE, and Gram-negative organisms including Klebsiella pneumonia, Escherichia coli, and Pseudomonas aeruginosa.

[4] = tested on: Bacillus subtilis MTCC 441; assay: as above; format: cell-based; details: MTCC441
Description: as §1

[5] = tested on: Klebsiella pneumonia MTCC 618; assay: as above; format: cell-based; details: Klebsiella pneumoniae, MTCC618
Description: as §1

[6] = tested on: Enterococcus faecium ATCC 35667; assay: as above; format: cell-based; details: ATCC35667
Description: as §1

[7] = tested on: Staphylococcus epidermidis; assay: as above; format: cell-based
Description: as §1

[8] = tested on: Pseudomonas aeruginosa MTCC 741; assay: as above; format: cell-based; details: MTCC741
Description: as §1

[9] = tested on: Escherichia coli MTCC 443; assay: as above; format: cell-based
Description: as §1

[10] = tested on: Staphylococcus aureus ATCC BAA-1556 (MERSA resistant); assay: as above; format: cell-based; details: ATCCBAA1556
Description: as §1

[11] = tested on: Enterococcus faecium ATCC 51559 (VRE resistant); assay: as above; format: cell-based
Description: as §1

[12] = Escherichia coli MTCC 443 + efflux pump inhibitor PAβN (200 μg/mL)

T1 sequence (P0AES4 whole entry, one chain of several): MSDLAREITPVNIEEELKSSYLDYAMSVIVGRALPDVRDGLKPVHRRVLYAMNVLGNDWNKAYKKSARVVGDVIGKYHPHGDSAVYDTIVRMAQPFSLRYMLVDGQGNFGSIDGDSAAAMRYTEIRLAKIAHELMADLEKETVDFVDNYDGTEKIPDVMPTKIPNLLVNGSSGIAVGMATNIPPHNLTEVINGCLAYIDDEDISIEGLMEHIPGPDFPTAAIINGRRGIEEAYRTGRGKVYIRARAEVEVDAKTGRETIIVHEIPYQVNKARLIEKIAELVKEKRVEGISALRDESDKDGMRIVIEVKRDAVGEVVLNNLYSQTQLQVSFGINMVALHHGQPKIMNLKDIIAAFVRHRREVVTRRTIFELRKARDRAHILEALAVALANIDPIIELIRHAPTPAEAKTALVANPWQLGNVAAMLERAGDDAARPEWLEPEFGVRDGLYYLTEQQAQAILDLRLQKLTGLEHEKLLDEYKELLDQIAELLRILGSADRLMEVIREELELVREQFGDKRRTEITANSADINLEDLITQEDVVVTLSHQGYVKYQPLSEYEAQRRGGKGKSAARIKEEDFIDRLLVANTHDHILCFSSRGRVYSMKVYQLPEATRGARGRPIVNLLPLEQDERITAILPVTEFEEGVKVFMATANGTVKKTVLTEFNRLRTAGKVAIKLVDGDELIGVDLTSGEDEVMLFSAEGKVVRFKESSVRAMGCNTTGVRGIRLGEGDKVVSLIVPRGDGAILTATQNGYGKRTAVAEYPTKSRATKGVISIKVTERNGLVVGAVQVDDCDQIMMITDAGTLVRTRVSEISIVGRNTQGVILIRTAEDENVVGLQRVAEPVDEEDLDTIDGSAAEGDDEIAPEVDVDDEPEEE

SMILES: CCCCCN(C)Cc1cc(C(=O)O)ccc1-n1ccc2c([nH]c3c(NC)cc(F)cc32)c1=O [Compound 6, 4-(6-fluoro-8-(methylamino)-1-oxo-1,9-dihydro-2H-pyrido[3,4-b]indol-2-yl)-3-((methyl(pentyl)amino)methyl)benzoic acid]
- IC50 [1]: 18 nM
- MIC [2]: 8 µg/mL (≈ 17.2 µM)
- MIC ([3]; Staphylococcus aureus ATCC 29213, read-out: MIC): 0.75 µg/mL (≈ 1.61 µM)
- MIC ([4]; Bacillus subtilis MTCC 441, read-out: MIC): 0.5 µg/mL (≈ 1.08 µM)
- MIC ([5]; Klebsiella pneumonia MTCC 618, read-out: MIC): 1 µg/mL (≈ 2.15 µM)
- MIC ([6]; Enterococcus faecium ATCC 35667, read-out: MIC): 0.5 µg/mL (≈ 1.08 µM)
- MIC ([7]; read-out: MIC): 0.75 µg/mL (≈ 1.61 µM)
- MIC ([8]; Pseudomonas aeruginosa MTCC 741, read-out: MIC): 0.75 µg/mL (≈ 1.61 µM)
- MIC [9, 12]: 0.5 µg/mL
- MIC ([9]; MTCC443, Escherichia coli MTCC 443, read-out: MIC): 8 µg/mL (≈ 17.2 µM)
- MIC ([10]; Staphylococcus aureus ATCC BAA-1556 (MERSA resistant), read-out: MIC): 0.75 µg/mL (≈ 1.61 µM)
- MIC ([11]; Enterococcus faecium ATCC 51559 (VRE resistant), read-out: MIC): 0.5 µg/mL (≈ 1.08 µM)

SMILES: CN[C@H](CC(C)C)C(=O)N[C@H]1C(=O)N[C@@H](CC(N)=O)C(=O)N[C@H]2C(=O)N[C@H]3C(=O)N[C@H](C(=O)N[C@H](C(=O)O)c4cc(O)cc(O)c4-c4cc3ccc4O)[C@H](O)c3ccc(c(Cl)c3)Oc3cc2cc(c3O[C@@H]2O[C@H](CO)[C@@H](O)[C@H](O)[C@H]2O[C@H]2C[C@](C)(N)[C@H](O)[C@H](C)O2)Oc2ccc(cc2Cl)[C@H]1O [Vancomycin, reference compound]
- MIC ([3]; Staphylococcus aureus): 1 µg/mL (≈ 0.69 µM)
- MIC ([4]; Bacillus subtilis): 0.5 µg/mL (≈ 0.345 µM)
- MIC [5]: > 128 µg/mL
- MIC ([6]; Enterococcus faecium): 0.5 µg/mL (≈ 0.345 µM)
- MIC [7]: 1 µg/mL (≈ 0.69 µM)
- MIC ([8]; Pseudomonas aeruginosa): > 128 µg/mL
- MIC [9, 12]: >128 µg/mL
- MIC ([9]; Escherichia coli, MTCC443): > 128 µg/mL
- MIC ([10]; Staphylococcus aureus): 1 µg/mL (≈ 0.69 µM)
- MIC ([11]; Enterococcus faecium): > 128 µg/mL
